Laboratory results taken from the supplement of paper PMC10307832.

Columns and labels:
Assay in all cases: relative viability (nuclei count vs DMSO), 5 days (fraction); higher = more cells survive
[1] = compound: CC1CC(=O)N(C2=CN=C(N=C2N1C3CCCC3)NC4=C(C=C(C=C4)C(=O)NC5CCN(CC5)C)OC)C [NPK76-II-72-1] + CCNC(=O)c1noc(-c2cc(C(C)C)c(O)cc2O)c1-c1ccc(CN2CCOCC2)cc1 [Luminespib] (partner 0.01 µM)
How it was run: (§1)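 Five library-drug doses in √10 steps were combined with a fixed anchor-drug dose, or a single drug was given alone, by pin tool to lung cancer cell lines in 1536-well plates the day after seeding. Nuclei were stained and counted after 5 days. Relative viability is the nuclei count in treated wells over that in vehicle wells, taken as the median of duplicate plates.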

[2] = compound: CC1CC(=O)N(C2=CN=C(N=C2N1C3CCCC3)NC4=C(C=C(C=C4)C(=O)NC5CCN(CC5)C)OC)C [NPK76-II-72-1] + CS(=O)(=O)N1CCN(Cc2cc3nc(-c4cccc5[nH]ncc45)nc(N4CCOCC4)c3s2)CC1 [Pictilisib] (partner 1 µM)
How it was run: as §1

[3] = compound: CC[C@@H]1C(=O)N(C)c2cnc(Nc3ccc(C(=O)NC4CCN(C)CC4)cc3OC)nc2N1C1CCCC1 [BI-2536] + COc1cccc2cc(-c3nc([C@H]4CC[C@H](C(=O)O)CC4)n4ncnc(N)c34)[nH]c12 [OSI-027] (partner 0.5 µM)
How it was run: as §1

[4] = compound: CC[C@@H]1C(=O)N(C)c2cnc(Nc3ccc(C(=O)NC4CCN(C)CC4)cc3OC)nc2N1C1CCCC1 [BI-2536] + NC(=O)Nc1cc(-c2cccc(F)c2)sc1C(=O)N[C@H]1CCCNC1 [AZD7762] (partner 0.2 µM)
How it was run: as §1

| Cell Line | relative viability ([1]; first compound 0.01 µM) | relative viability ([1]; first compound 0.03162 µM) | relative viability ([1]; first compound 0.1 µM) | relative viability ([1]; first compound 0.3162 µM) | relative viability ([1]; first compound 1 µM) | relative viability ([2]; first compound 0.03162 µM) | relative viability ([2]; first compound 0.1 µM) | relative viability ([2]; first compound 0.3162 µM) | relative viability ([2]; first compound 1 µM) | relative viability ([3]; first compound 0.01 µM) | relative viability ([3]; first compound 0.03162 µM) | relative viability ([3]; first compound 0.1 µM) | relative viability ([3]; first compound 0.3162 µM) | relative viability ([3]; first compound 1 µM) | relative viability ([4]; first compound 0.01 µM) | relative viability ([4]; first compound 0.03162 µM) | relative viability ([4]; first compound 0.1 µM) | relative viability ([4]; first compound 0.3162 µM) | relative viability ([4]; first compound 1 µM) | relative viability ([2]; first compound 0.01 µM) |
| --- | --- | --- | --- | --- | --- | --- | --- | --- | --- | --- | --- | --- | --- | --- | --- | --- | --- | --- | --- | --- |
| LCLC-97TM1 | 0.673 | 0.768 | 0.532 | 0.748 | 0.748 | 0.251 | 0.168 | 0.173 | 0.207 | 0.575 | 0.538 | 0.434 | 0.138 | 0.167 | 0.159 | 0.216 | 0.0989 | 0.0787 | 0.0721 |  |
| LCLC-103H | 0.9 | 1.05 | 0.919 | 1.03 | 1.01 | 0.761 | 0.671 | 0.609 | 0.679 | 0.462 | 0.466 | 0.485 | 0.215 | 0.155 | 0.804 | 0.826 | 0.605 | 0.244 | 0.169 | 0.692 |
| LK-2 | 0.183 | 0.214 | 0.215 | 0.191 | 0.191 | 0.567 | 0.636 |  | 0.582 | 0.202 | 0.183 | 0.169 | 0.158 | 0.151 | 0.463 | 0.5 | 0.121 | 0.0816 | 0.091 | 0.582 |
| LOU-NH91 | 0.305 | 0.324 | 0.347 | 0.33 | 0.345 | 0.507 | 0.46 | 0.502 | 0.597 | 0.716 | 0.697 | 0.695 | 0.416 | 0.244 | 0.722 | 0.76 | 0.42 | 0.316 | 0.329 | 0.501 |
| LU99A | 0.261 | 0.212 | 0.304 | 0.238 | 0.278 | 0.32 | 0.411 | 0.292 | 0.334 | 0.281 | 0.28 | 0.181 | 0.161 | 0.17 | 0.309 | 0.334 | 0.111 | 0.145 | 0.102 | 0.371 |
| LXF-289 | 0.614 | 0.761 | 0.675 | 0.694 | 0.688 | 0.819 | 0.796 | 0.772 | 0.776 | 0.844 | 0.687 | 0.181 | 0.0418 | 0.0509 | 1 | 1.14 | 0.61 | 0.0819 | 0.083 | 0.791 |
| NCI-H23 | 0.237 | 0.209 | 0.228 | 0.228 | 0.201 | 0.48 |  | 0.503 | 0.534 | 0.551 | 0.508 | 0.16 | 0.107 | 0.107 | 0.236 | 0.236 | 0.127 | 0.12 | 0.088 | 0.389 |
| NCI-H322M | 0.818 | 0.826 | 0.943 | 0.783 | 1.01 | 0.573 | 0.513 | 0.576 | 0.513 | 0.52 | 0.52 | 0.37 | 0.411 | 0.305 | 0.61 | 0.53 | 0.496 | 0.394 | 0.406 | 0.45 |
| NCI-H358 | 0.21 | 0.431 | 0.521 |  | 0.839 | 0.364 | 0.334 | 0.3 | 0.332 | 0.758 | 0.477 | 0.0848 | 0.0717 | 0.0809 | 0.64 | 0.408 | 0.266 | 0.153 | 0.177 | 0.352 |
| NCI-H441 | 0.35 | 0.348 | 0.299 | 0.425 | 0.536 | 0.507 | 0.605 | 0.471 | 0.425 | 0.449 | 0.42 | 0.222 | 0.226 | 0.266 | 0.977 | 1.21 | 0.228 | 0.174 | 0.21 | 0.419 |
| NCI-H460 | 0.0406 | 0.0404 | 0.0346 | 0.0272 | 0.0329 | 0.297 | 0.367 | 0.34 | 0.365 | 0.676 | 0.327 | 0.247 | 0.0156 | 0.0121 | 0.724 | 0.649 | 0.473 | 0.0346 | 0.0318 | 0.238 |
| NCI-H596 | 0.871 | 1.18 | 0.975 | 1.03 | 1.12 | 0.338 | 0.396 | 0.368 | 0.429 | 0.688 | 0.825 | 0.51 | 0.191 | 0.304 | 1.1 | 1.14 | 1.11 | 0.342 | 0.403 | 0.401 |
| NCI-H647 | 0.189 | 0.188 | 0.143 | 0.202 | 0.23 | 0.427 | 0.401 | 0.406 | 0.466 | 0.814 | 0.807 | 0.529 | 0.0918 | 0.0985 | 0.542 | 0.308 | 0.257 | 0.0341 | 0.0503 | 0.38 |
| NCI-H650 | 0.72 | 0.843 | 0.718 | 0.615 | 0.891 | 0.88 | 0.71 |  | 1.21 | 0.551 | 0.471 | 0.351 | 0.19 | 0.144 | 0.944 | 1.4 | 0.541 | 0.201 | 0.138 | 0.804 |
| NCI-H727 | 0.29 | 0.31 | 0.288 | 0.246 | 0.412 | 0.428 | 0.385 | 0.418 | 0.319 | 0.597 | 0.471 | 0.499 | 0.334 | 0.338 | 0.479 | 0.8 | 0.664 | 0.406 | 0.314 | 0.396 |
| SW 900 | 0.183 | 0.19 | 0.171 | 0.169 | 0.169 |  |  |  |  | 0.6 | 0.427 | 0.456 | 0.129 | 0.132 | 0.557 | 0.689 | 0.568 | 0.188 | 0.137 |  |
